From patent publication US20230405078A1, “DETECTION AND TREATMENT OF INTESTINAL FIBROSIS” (THE REGENTS OF THE UNIVERSITY OF CALIFORNIA, priority 2020, published 2023)
Where no end group is shown, it is not given here.

Key:
Format in all cases: in vivo
Salmonella-infected mice = experiment: Salmonella-mediated cecal fibrosis in mice; details: Salmonella-infected mice with lentiviral elafin overexpression
Description: Eight-week-old male and female 129Sv/J mice (#000691, Jackson Laboratories) were administered 20 mg streptomycin via oral gavage. Twenty-four hours later, the mice were orally infected with Salmonella typhimurium SL1344 strain 1×10^8 colony-forming units by oral gavage to induce cecal fibrosis.
Origene or miR205-5p-OFF lentivrus (mm35328) or miR205-5p-OE lentivirus (mm15214) from Applied Biological Materials on day 14. Some infected mice received oral antibiotics mixture in drinking water ad libitum from day 14 to day 21 to suppress intestinal microbiota. […]
H&E and Masson Trichrome (MT) staining were performed as described previously. Microphotographs were recorded at multiple locations and scored by two investigators blindly. Intestinal injuries were scored (0-12). The severity of intestinal fibrosis was assessed by MT staining and scored (0-3). […]
Total RNA was isolated by an RNeasy kit (#74104, Qiagen) and reverse transcribed into cDNA by a high-capacity cDNA reverse transcription kit (#4368813, ThermoFisher). […] Relative mRNA/miRNA quantification was performed by comparing test groups and control groups after normalization with endogenous control genes. The fold changes are expressed as 2^ΔΔCt. […]
(§1) Overall disease activity (ODA) was calculated by % change of histology and fibrosis scores and colonic mRNA expression of fibrosis- and inflammation-related genes. […]

[1] = system: HFD-treated elafin-overexpressing mice; experiment: Intraperitoneal IL-1β and IFNγ injection to HFD-treated elafin-overexpressing mice; details: for effect on elafin-mediated inhibition of fat mass and fasting blood glucose levels / effect on elafin-mediated inhibition of liver steatosis: mouse, in vivo
Excerpt: FIG. 33. Circulating immune cells mediated the anti-obesity effects of elafin in HFD-treated male mice. (A) Circulating immune cell mRNA expression in the HFD-treated mice with and without lentiviral elafin overexpression. (B) Splenocyte transplantation to HFD-treated Rag−/− mice. (C) Physiological parameters of HFD-treated Rag−/− recipient mice after splenocyte transplantation. Transplantation of splenocytes from elafin-overexpressing donors caused reduced fat mass, body weight, and food consumption and increased leptin levels in the Rag−/− recipient mice. (D) Mesenteric fat and epididymal fat tissue mRNA expression in HFD- treated mice with and without lentiviral elafin overexpression. (E) Determination of the physiological effects of intraperitoneal IL-1β and IFNγ injection to HFD-treated elafin-expressing mice. IL-1β or IFNγ was injected on the same day as elafin-expressing lentivirus injection. (F) Daily food consumption, (G) serum leptin levels. (H) Change in body weight. (I) Change in fat mass. (J) Fasting blood glucose levels. Each group consists of 8 mice.
Some groups were injected with IL-1β protein 2.5 μg per mouse (#211-11B Peprotech) or IFNγ protein 5 μg per mouse (#315-05 Peprotech) intraperitoneally to increase circulating IL-1β or IFNγ levels.

HFD-treated male mice [2] = experiment: Leptin sensitivity test in HFD-treated male mice
Description: FIG. 35. Elafin-dependent serum exosome-mediated inhibition of hyperphagia and hyperglycemia was reversed by miR181b-5p and miR219-5p inhibitors. (A) Serum exosome transplantation to HFD-treated mice. The miRNA inhibitors were injected on the same day as exosome injection. (B) Change in fat mass. (C) No significant change in body weight among all groups over 7 days after miRNA inhibitor and exosome injection. (D) Fasting blood glucose levels 7 days after exosome and miRNA inhibitor injection. (E) Daily food consumption per mouse. (F) Serum leptin levels measured on day seven post-injection. (G, H) Leptin, Cd36, and adiponectin mRNA expression in the mesenteric fat and epididymal fat of HFD-treated mice with exosome and miRNA inhibitor injection. (I) Leptin sensitivity test: The RD/HFD-treated mice were injected with leptin for 3 days after elafin-LV injection. (J, K) Daily food consumption and fasting blood glucose levels at 24 h after the last leptin injection. Each group consists of 8 mice.
Leptin sensitivity tests were performed by injecting 1 μg/kg leptin intraperitoneally (#450-31, Peprotech) daily for 3 days. At the endpoint of the experiments, mice were fasted for 6 h and tested for fasting blood glucose and cholesterol levels with a drop of tail vein blood using Freestyle Lite blood glucose meter and test strips (Abbott Diabetes Care) and Accutrend Plus meter and test strips (Roche), respectively. The oral glucose tolerance test (OGTT) was performed by feeding D-glucose (1 g/kg) to fasted mice via oral gavage, and the blood glucose level was measured 2 h after oral glucose feeding. Blood glucose and cholesterol levels are presented as mg/dL. Measurements of fasting blood glucose levels, blood total cholesterol levels, food consumption, and fat/lean mass (EchoMRl) were performed as described in our previous report.
For inhibition of miRNAs, control (Y100199006), miR-181b-5p (YC10201288-FZA), and miR-219-5p (YC10201241-FZA) inhibitors (Qiagen) were dissolved in PBS. […]

HFD-treated male mice [3] = experiment: Oral and subcutaneous administration of modified elafin to HFD-treated male mice; details: 14 days
Description: FIG. 36. Subcutaneous and oral administration of modified elafin inhibited hyperphagia and hyperglycemia in HFD-treated male mice. (A) Elafin (1 mg/kg) was injected into RD-treated male mice subcutaneously. Tail-vein blood samples were collected for elafin ELISA. This mouse experiment was intended for the determination of basic pharmacokinetics of elafin, but not the determination of physiology of elafin. (B) HFD-treated mice were treated with either oral gavage of Elafin-Eudragit formulation (10 mg/kg) daily or subcutaneous injection of PEG-elafin (3.25 mg/kg) every 48 h for 14 days. Serum elafin levels. (C) Serum leptin levels. (D) Serum IFNγ and IL-1β levels. (E) Daily food consumption. (F) Change in fat mass. (G) Change in body weight over 14 days. (H) Fasting blood glucose levels. Each group consists of 8 mice.
Oral and subcutaneous administration of modified elafin to mice. Eight-week-old male c57BL/6J (JAX #000664) mice were fed with HFD for 8 weeks to induce obesity and hyperglycemia, followed by administration of Elafin-Eudragit formulation (10 mg/kg) via oral gavage daily or subcutaneous injection of polyethylene glycol conjugated (PEGylated) elafin (3.25 mg/kg) every 48 h to mice for 14 days. Oral Elafin-Eudragit formulation was made by Dr. Xingguo Cheng at the Southwest Research Institute (SWRI), Texas. Elafin was coated with Eudragit FS3OD polymer. […] Elafin-Eudragit was packaged into microparticles using an SWRI-patented spinning disk atomization technology. This packaging prevented leakage of elafin in acidic, aqueous solution. The oral elafin-Eudragit formulation was dissolved in mildly acidified (pH 5) water containing 0.5% hydroxypropyl methylcellulose (HPMC). PEGylated elafin was made by conjugation to methoxyl-PEG12 (New England Peptide Company). Control groups received either oral Eudragit-HPMC solution or subcutaneous PEG injection.

TNBS-treated mice = experiment: TNBS-associated colonic fibrosis in mice; details: TNBS-treated mice
Description: Eight-week-old male and female CD-1 mice (#022, Charles River Laboratories) were injected with 50pL TNBS solution (to induce colonic fibrosis) or 30% ethanol (vehicle) via enema weekly for five weeks. After the last TNBS injection, the mice were held for two additional weeks to develop colonic fibrosis. Some of the mice were injected with 5 μg/mouse of either control (PS100001) or elafin-expressing construct (RC203136) from
Origene via InvivoJetPEI transfection reagent (201-10G, Polyplus) intracolonically on the 9th day after the last TNBS injection or five days before the end of experiment.
Some of the mice received either a single intraperitoneal injection of 10 mg/kg anti-tumor necrosis factor-alpha (anti-TNFα) neutralizing antibody (6E0058, BioXCell) or oral antibiotic mixture in drinking water ad libitum from the 9th day after the last TNBS injection to the endpoint of the experiment. The antibiotics mixture contains kanamycin (0.4 mg/mL), gentamicin (0.035 mg/mL), colistin (850 U/mL), metronidazole (0.215 mg/mL), and vancomycin (0.045 mg/mL), which was routinely used by our laboratory for suppressing intestinal microbiota.
For PAR1/2 activation, some of the mice were injected with DMSO (50pL/mouse), 5 mg/kg PAR1 agonist TRAP-6, or 5 mg/kg PAR2 agonist SLIGKV-NH2 via enema on the 9th, 11th, and 13th days after the last TNBS injection.
For miRNA inhibition, some of the mice were injected with 5 mg/kg either control inhibitor or miR205-5p power inhibitor (Qiagen) […] via enema on the 9th, 11th, and 13th days after the last TNBS injection.
For Zeb1 manipulation, some mice received a single intraperitoneal injection (10^7 infectious units/mouse) of control lentivirus (PS100064V), Zeb1-overexpressing lentivirus (MR223095L2V), or Zeb1-shRNA lentivirus (TL513177V) from Origene, Inc. nine days after the last TNBS injection.
Dr. Xingguo Cheng produced the oral elafin-Eudragit-FS3OD formulation via a material transfer agreement (UCLA MTA2019-00000337) with the Southwest Research Institute (SWRI) in Texas. […] The mice were fed with either control-Eudragit or elafin-Eudragit in mildly acidified (pH 5) water containing 0.5% hydroxypropyl methylcellulose (HPMC) daily via oral gavage during the last five days of the experiment.
H&E and Masson Trichrome (MT) staining were performed as described previously. Microphotographs were recorded at multiple locations and scored by two investigators blindly. Intestinal injuries were scored (0-12). The severity of intestinal fibrosis was assessed by MT staining and scored (0-3). ZEB1 immunohistochemistry was performed using an anti-ZEB1 antibody (HPA027524, Sigma).
Total RNA was isolated by an RNeasy kit (#74104, Qiagen) and reverse transcribed into cDNA by a high-capacity cDNA reverse transcription kit (#4368813, ThermoFisher). PCR reactions were run with Taq Universal SYBR Green Supermix (1725120, Bio-Rad) and TaqMan real-time PCR assays (ThermoFisher) in a Bio-Rad CFX384 system. For the determination of miRNA expression, RNA was converted to cDNA using miRCURY LNA RT kit. PCR reactions were run with miRCURY LNA SYBR Green PCR kit and miRCURY LNA PCR assays (Qiagen). Relative mRNA/miRNA quantification was performed by comparing test groups and control groups after normalization with endogenous control genes. The fold changes are expressed as […]. […]
as §1

With `CC[C@H](C)[C@H](NC(=O)[C@H](CC1CCCCC1)NC(=O)c1ccno1)C(=O)NCc1cccc(C(=O)N2CCC(CN)CC2)c1` [GB110, reference compound] the “effect on elafin-mediated inhibition of cecal fibrosis / collagen deposition and fibrogenic mRNA expression” value (Salmonella-infected mice) was “reversed”.

With IFNγ: IFNγ protein (Peprotech) the “food consumption in elafin-overexpressing mice” value ([1]; IL-1β 2.5 μg or IFNγ 5 μg per mouse intraperitoneally) was “moderately increased”, the “effect on elafin-mediated inhibition of fat mass and fasting blood glucose levels” value [1] was “reversed” and the “effect on elafin-mediated inhibition of liver steatosis” value [1] was “reversed”. The “effect on elafin-mediated decrease of food consumption and fasting blood glucose levels” value (HFD-treated male mice [2]; mouse, in vivo) was “reversed”.

In the case of IL-1β: IL-1β protein (Peprotech), the “effect on elafin-mediated inhibition of fat mass and fasting blood glucose levels” value [1] is reported as “reversed” and the “effect on elafin-mediated inhibition of liver steatosis” value [1] is reported as “reversed”.

In the case of “Leptin: leptin (#450-31, Peprotech) injected intraperitoneally”, the “food consumption in HFD-treated elafin-overexpressing mice” value (HFD-treated male mice [2]; leptin 1 μg/kg intraperitoneally daily for 3 days) is reported as “further reduced” and the “decrease of fasting blood glucose in HFD-treated elafin-overexpressing mice” value (HFD-treated male mice [2]; leptin daily for 3 days) is reported as “not affected”.

For “PEG-Elafin: elafin conjugated to methoxyl-PEG12, for subcutaneous injection (AQEPVKGPVSTKPGSCPIILIRCAMLNPPNRCLKDTDCPGIKKCCEGSCGMACFVPQ; ends and bridges not checked; also: conjugated to methoxyl-PEG12, site not given here; UniProt P19957 61-117, looked up)”, the “circulating IFNγ levels” value (HFD-treated male mice [3]) was “significantly reduced”, the circulating leptin levels (HFD-treated male mice [3]) was “significantly increased” and the “fasting blood glucose levels” value (HFD-treated male mice [3]) was “significantly reduced”. For the same compound, the fat mass gain (HFD-treated male mice [3]) was “significantly reduced”, the food consumption (HFD-treated male mice [3]) was “significantly reduced” and the liver steatosis (HFD-treated male mice [3]) was “significantly reduced”. For the same compound, the “serum elafin levels versus lentiviral elafin overexpression” value (HFD-treated male mice [3]; Elafin-Eudragit 10 mg/kg oral daily, PEG-elafin 3.25 mg/kg s.c. every 48 h) was “comparable”.

For TRAP-6 [PAR1 agonist], the “colonic injury and fibrosis” value (TNBS-treated mice) was “did not affect”.
